Reference: publication PMC9552235

Assay: Macrolactamisation (Trp/pyrroloindoline CO2H + Val NH2): HATU 1.2 equiv pre-activation, slow syringe-pump addition to Et3N (15 equiv; 1.2 equiv for 12), after TFA N-Boc removal
Details: CH2Cl2/DMF (10:1 to 40:1), 0.6 mM, 2 steps

C=CC(C)(C)[C@@]12C[C@@H]3C(=O)N[C@@H](C(C)C)C(=O)Nc4ccccc4C(=O)N(c4ccccc41)[C@@H]2N3C(C)=O
ring closure, yield over several steps (from C=CC(C)(C)[C@]12C[C@H](C(=O)O)N(C(C)=O)[C@H]1N(C(=O)c1ccccc1NC(=O)[C@@H](N)C(C)C)c1ccccc12, 12-membered ring, 37.0 h): 0%

C=CC(C)(C)[C@@]12C[C@H]3C(=O)N[C@@H](C(C)C)C(=O)Nc4ccccc4C(=O)N(c4ccccc41)[C@@H]2N3C(C)=O [(S)-endo-40 -> L-Trp-regio-endo-4]
ring closure, yield over several steps (from C=CC(C)(C)[C@]12C[C@@H](C(=O)O)N(C(C)=O)[C@H]1N(C(=O)c1ccccc1NC(=O)[C@@H](N)C(C)C)c1ccccc12, 12-membered ring, 22.0 h): 37%

C=CC(C)(C)[C@]12C[C@H]3C(=O)N[C@@H](C(C)C)C(=O)Nc4ccccc4C(=O)N(c4ccccc41)[C@H]2N3C(C)=O [(S)-exo-40 -> L-Trp-regio-exo-4 (moderately pure, unstable)]
ring closure, yield over several steps (from C=CC(C)(C)[C@@]12C[C@@H](C(=O)O)N(C(C)=O)[C@@H]1N(C(=O)c1ccccc1NC(=O)[C@@H](N)C(C)C)c1ccccc12, 12-membered ring, 15.0 h): 21%

CC(=O)N[C@@H]1Cc2cn(c3ccccc23)C(=O)c2ccccc2NC(=O)[C@H](C(C)C)NC1=O [H-L-Val-(2-aminobenzoyl)-(N-indole)-Ac-D-Trp-OH]
ring closure, yield over several steps (from CC(=O)N[C@H](Cc1cn(C(=O)c2ccccc2NC(=O)[C@@H](N)C(C)C)c2ccccc12)C(=O)O, 13-membered ring, 84.0 h): 14%

C=CC(C)(C)[C@]12C[C@@H]3C(=O)N[C@@H](C(C)C)C(=O)Nc4ccccc4C(=O)N(c4ccccc41)[C@H]2N3C(C)=O [endo-40 -> D-Trp-regio-endo-4]
ring closure, yield over several steps (from C=CC(C)(C)[C@@]12C[C@H](C(=O)O)N(C(C)=O)[C@@H]1N(C(=O)c1ccccc1NC(=O)[C@@H](N)C(C)C)c1ccccc12, 12-membered ring, 24.0 h): 61%
